From US8993594B2, “Isoquinolin-1(2H)-one derivatives as PARP-1 inhibitors” (Nerviano Medical Sciences S.R.L., priority 2009, dated 2015) come the findings set out here.

Counter-ions that a name gives are not always drawn. Where only a bound is given, the exact number is not on record here.

One assay concerns the target PARP-1 FL (Homo sapiens, UniProt P09874). Kind of assay: Fluorescence polarization probe displacement assay. In kind it is binding. To be noted: for DC50: half maximal displacement concentration. Background: Fluorescence polarisation rises when a labelled molecule tumbles more slowly, as on binding a larger partner.
Another assay deals with PARP-2 FL (Homo sapiens, UniProt Q9UGN5). As to the kind of experiment: Fluorescence polarization probe displacement assay. The following applies: for DC50: compound P1 as the probe. In kind it is binding.
The test system of assay [1] is hydrogen peroxide induced PAR formation in HeLa cells. Kind of assay: Cellular PAR assay (inhibition of hydrogen peroxide induced PAR formation). In kind it is cell-based. To be noted: Homo sapiens, 0.1 mM hydrogen peroxide 15 min.
Protocol: Compounds potencies were evaluated by measuring the inhibition of poly (ADP-ribose) (PAR) chains formation as a marker for PARP-1 inhibition.
Cellular activity of PARP-1 inhibitors was assessed by measuring the inhibition of the hydrogen peroxide induced PAR formation in HeLa cells (ECACC). Cellular PAR levels were measured by immunocytochemistry and quantified using an ArrayScan vTi instrument (Cellomics Thermo Scientific).
Studies were performed as follows: 6000 cells/well were seeded in 96 well plates (Perkin Elmer) in MEM/10% FCS and incubated for 24 hours at 37° C., 5% carbon dioxide. Test compounds were then added at the required concentration for 30′. […] Concentration curves were prepared in MEM/10% FCS from compound stocks in DMSO and final DMSO concentration was 0.002% (v/v). Duplicate wells for each concentration point were prepared with a typical highest compound concentration of 20 μM and serial dilution 1:3. […] Non-specific binding sites were blocked by incubating wells for 30 min in PBS containing 5% (w/v) FBS 0.05% tween20. […] After washing further 3 times in PBS, cellular PAR immunoreactivity was assessed using the ArrayScan vTi instrument, with a Zeiss 10×0.5 N.A. objective, and applying the Cytotoxicity.V3 algorithm (Cellomics/Thermo Fisher) with a XF100 filter. At least 10 fields, corresponding to at least 900 cells, were read for each well.
The following formula is used: IC50=Bottom+(Top−Bottom)/(1+10^((Log EC50−X))); X is the logarithm of concentration. IC50 is the response; IC50 starts at Bottom and goes to Top with a sigmoid shape.

PARP-2 FL, sequence (Q9UGN5 whole entry): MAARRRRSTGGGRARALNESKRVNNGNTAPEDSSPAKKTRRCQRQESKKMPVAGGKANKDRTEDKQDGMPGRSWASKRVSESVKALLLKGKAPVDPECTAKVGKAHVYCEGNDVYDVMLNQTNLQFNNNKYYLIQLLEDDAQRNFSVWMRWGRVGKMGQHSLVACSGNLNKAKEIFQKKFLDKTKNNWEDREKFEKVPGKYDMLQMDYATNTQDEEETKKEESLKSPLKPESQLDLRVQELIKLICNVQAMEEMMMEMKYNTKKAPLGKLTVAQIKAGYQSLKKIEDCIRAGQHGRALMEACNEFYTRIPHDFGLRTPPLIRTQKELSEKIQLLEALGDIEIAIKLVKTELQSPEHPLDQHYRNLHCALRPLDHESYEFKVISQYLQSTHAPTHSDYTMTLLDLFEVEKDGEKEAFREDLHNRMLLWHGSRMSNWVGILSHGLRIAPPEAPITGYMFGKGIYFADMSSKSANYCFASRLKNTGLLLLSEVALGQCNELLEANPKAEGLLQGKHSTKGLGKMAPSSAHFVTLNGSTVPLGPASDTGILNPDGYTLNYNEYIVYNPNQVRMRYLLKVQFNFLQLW
PARP-1 FL, sequence (P09874 whole entry): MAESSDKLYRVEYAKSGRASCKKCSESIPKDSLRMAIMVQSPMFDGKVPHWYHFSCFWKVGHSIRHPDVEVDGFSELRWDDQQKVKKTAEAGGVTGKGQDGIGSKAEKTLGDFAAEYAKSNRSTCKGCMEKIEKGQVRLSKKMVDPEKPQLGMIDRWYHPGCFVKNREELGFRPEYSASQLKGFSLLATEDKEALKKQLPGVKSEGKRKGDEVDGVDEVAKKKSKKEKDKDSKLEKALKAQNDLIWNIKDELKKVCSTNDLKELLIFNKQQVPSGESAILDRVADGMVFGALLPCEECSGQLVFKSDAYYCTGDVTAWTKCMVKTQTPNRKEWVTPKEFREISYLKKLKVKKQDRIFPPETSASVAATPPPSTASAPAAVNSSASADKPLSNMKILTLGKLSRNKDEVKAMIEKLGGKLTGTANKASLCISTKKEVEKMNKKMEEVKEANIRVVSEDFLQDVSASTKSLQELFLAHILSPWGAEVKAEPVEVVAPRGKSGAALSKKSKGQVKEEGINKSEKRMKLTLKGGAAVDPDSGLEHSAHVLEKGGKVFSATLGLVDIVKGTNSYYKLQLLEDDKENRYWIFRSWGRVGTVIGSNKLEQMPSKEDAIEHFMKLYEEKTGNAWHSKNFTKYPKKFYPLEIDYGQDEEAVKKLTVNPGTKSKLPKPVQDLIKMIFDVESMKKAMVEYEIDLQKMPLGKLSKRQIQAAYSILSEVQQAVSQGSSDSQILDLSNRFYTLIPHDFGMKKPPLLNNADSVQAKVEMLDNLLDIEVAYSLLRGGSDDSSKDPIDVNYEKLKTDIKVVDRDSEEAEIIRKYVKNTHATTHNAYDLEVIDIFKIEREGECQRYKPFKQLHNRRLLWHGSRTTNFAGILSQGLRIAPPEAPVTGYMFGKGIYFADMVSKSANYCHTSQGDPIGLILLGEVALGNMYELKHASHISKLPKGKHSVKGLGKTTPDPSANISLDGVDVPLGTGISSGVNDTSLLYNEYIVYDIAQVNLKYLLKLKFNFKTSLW
Protocol for PARP-1 FL: (§1) Affinity of the tested compounds and their selectivity with respect to the different PARP isoforms of interest was quantified in a displacement assay.
(§2) In all of the experiments, the polarization signal was measured using a Saphire2 plate reader (Tecan). Data analysis was performed using Dynafit software. In particular, titration data were fitted to the following equilibria: Enzyme+probe <==> Complex Enzyme-probe, while displacement data were fitted to the following equilibria: Enzyme+probe <==> Complex Enzyme-probe, Enzyme+Compound <==> Complex Enzyme-Compound, whereby binding of probe and compound on the enzyme are mutually exclusive (pure competitive mechanism). Displacement data were also fitted using Excel spreadsheet (Microsoft Inc. Seattle, USA) to a four parameter logistic model (4PL), or Hill-Slope model to calculate DC50s where the DC50 value represents the compound concentration at which the polarization signal is diminished by 50% compared to untreated controls.
(§3) In agreement, affinity binding constants (KD) were determined by fitting with a pure competitive mechanism. KD values are the average of three independent experiments.
Protocol for PARP-2 FL: as §1, §2, §3

At PARP-1 FL, `COc1cccc(-c2[nH]c(=O)c3ccccc3c2OCCCN2CCCCC2)c1` [Compound 10, 3-(3-Methoxy-phenyl)-4-(3-piperidin-1-yl-propoxy)-2H-isoquinolin-1-one] yielded a Kd of 0.05 µM and a DC50 of 0.35 µM. The compound also had a Kd at PARP-2 FL of 4.39 µM. The same compound displayed an IC50 in assay [1] of 0.33 µM.
In the case of `O=c1[nH]c(-c2ccccc2)c(OCCCN2CCNCC2)c2ccccc12` [Compound 14, 3-Phenyl-4-(3-piperazin-1-yl-propoxy)-2H-isoquinolin-1-one di-hydrochloride], at PARP-1 FL, the Kd is less than 0.03 µM and the DC50 is less than 0.25 µM. At PARP-2 FL, this compound yielded a Kd of 6.13 µM and a DC50 of 4.29 µM. The compound also came in with an IC50 in assay [1] of 4.2 µM.
For the compound `CCN(CC)CCCOc1c(-c2ccccc2)[nH]c(=O)c2ccccc12` [Compound 18, 4-(3-Diethylamino-propoxy)-3-phenyl-2H-isoquinolin-1-one hydrochloride], the values for the Kd on PARP-1 FL and on PARP-2 FL were less than 0.03 µM and 8.65 µM, respectively. Moreover, the DC50 at PARP-1 FL was less than 0.25 µM. For the same compound, in assay [1], half-maximal inhibition (IC50) was put at 0.85 µM.
As for `O=c1[nH]c(-c2ccccc2)c(OCCCN2CCCCC2)c2ccc(Cl)cc12` [Compound 37, 7-Chloro-3-phenyl-4-(3-piperidin-1-yl-propoxy)-2H-isoquinolin-1-one], the DC50 at PARP-1 FL is less than 0.25 µM. In assay [1], this compound gave an IC50 of 0.62 µM.
On PARP-1 FL, `NCCCOc1c(-c2ccccc2)[nH]c(=O)c2ccccc12` [Compound 3, 4-(3-Amino-propoxy)-3-phenyl-2H-isoquinolin-1-one hydrochloride] showed a Kd of less than 0.03 µM and a DC50 of less than 0.25 µM. Besides, at PARP-2 FL, the affinity, expressed as Kd, was 3.92 µM and the DC50 amounted to 4.1 µM. For the same compound, the midpoint of inhibition in assay [1], the IC50, lay at 3.26 µM.
For `O=c1[nH]c(-c2ccccc2)c(OCCCN2CCCCC2)c2ccccc12` [Compound 5, 3-Phenyl-4-(3-piperidin-1-yl-propoxy)-2H-isoquinolin-1-one trifluoroacetate], in that order: less than 0.03 µM, less than 0.25 µM, 4.59 µM, 4.34 µM and 1.44 µM.
In the case of `COc1cccc(-c2[nH]c(=O)c3ccccc3c2OCCN2CCCCC2)c1` [Compound 9, 3-(3-Methoxy-phenyl)-4-(2-piperidin-1-yl-ethoxy)-2H-isoquinolin-1-one], the DC50 at PARP-1 FL came out at 0.37 µM; at PARP-2 FL, 0.86 µM.
For the compound `NC(=O)c1cccc(N)c1` [Compound 3-AB, 3-aminobenzamide, reference compound], on PARP-1 FL (from all of the tested PARP isoforms), the “Displacement of the probe (compound P1 or compound P3)” value is “fully displaced”.
On PARP-1 FL, `NCCOc1c(-c2ccccc2)[nH]c(=O)c2ccccc12` [Compound 1, 4-(2-Amino-ethoxy)-3-phenyl-2H-isoquinolin-1-one hydrochloride] yielded a Kd of less than 0.03 µM and a DC50 of less than 0.25 µM. On PARP-2 FL, this compound registered a Kd of 3.07 µM and a DC50 of 2.89 µM. This compound displayed a half-inhibitory concentration (IC50) in assay [1] of 0.79 µM.
In the case of `CC(=O)NCCOc1c(-c2ccccc2)[nH]c(=O)c2ccccc12` [Compound 2, N-[2-(1-Oxo-3-phenyl-1,2-dihydro-isoquinolin-4-yloxy)-ethyl]-acetamide], the dissociation constant Kd on PARP-1 FL was found to be 0.2 µM; at PARP-2 FL, 6.28 µM. Further, the DC50 on PARP-1 FL is 0.32 µM. Further, the IC50 in assay [1] was 6.72 µM.
For the compound `CC(=O)NCCCOc1c(-c2ccccc2)[nH]c(=O)c2ccccc12` [Compound 4, N-[3-(1-Oxo-3-phenyl-1,2-dihydro-isoquinolin-4-yloxy)-propyl]-acetamide], the Kd at PARP-1 FL stood at 0.19 µM; on PARP-2 FL, 0.95 µM. The DC50 at PARP-1 FL worked out at 0.31 µM; on PARP-2 FL, 0.91 µM.
Take `O=c1[nH]c(-c2ccccc2)c(OCCN2CCNCC2)c2ccccc12` [Compound 6, 3-Phenyl-4-(2-piperazin-1-yl-ethoxy)-2H-isoquinolin-1-one di-hydrochloride]: on PARP-1 FL, the Kd is less than 0.03 µM and the DC50 is less than 0.25 µM. In addition, at PARP-2 FL, the Kd is more than 10 µM and the DC50 is more than 10 µM. Also, the half-maximal inhibitory concentration (IC50) in assay [1] stood at 0.86 µM.
For `O=C(NCCCOc1c(-c2ccccc2)[nH]c(=O)c2ccccc12)c1ccccc1` [Compound 8, N-[3-(1-Oxo-3-phenyl-1,2-dihydro-isoquinolin-4-yloxy)-propyl]benzamide], the DC50 at PARP-1 FL stood at 0.82 µM; at PARP-2 FL, 4.29 µM.
With `CNCCOc1c(-c2ccccc2)[nH]c(=O)c2ccccc12` [Compound 16, 4-(2-Methylamino-ethoxy)-3-phenyl-2H-isoquinolin-1-one], on PARP-1 FL, the Kd was less than 0.03 µM and the DC50 was less than 0.25 µM. Besides, the Kd at PARP-2 FL turned out to be 2.44 µM. This compound showed an IC50 in assay [1] of 0.48 µM.
As to `O=c1[nH]c(-c2ccccc2)c(OCCCN2CCCCC2)c2ccc(F)cc12` [Compound 38, 7-Fluoro-3-phenyl-4-(3-piperidin-1-yl-propoxy)-2H-isoquinolin-1-one], the figures for the DC50 at PARP-1 FL and on PARP-2 FL were less than 0.25 µM and 3.78 µM, respectively. The same compound showed an IC50 in assay [1] of 0.3 µM.
On PARP-1 FL, `CN(C)CCOc1c(-c2ccccc2)[nH]c(=O)c2ccccc12` [Compound 17, 4-(2-Dimethylamino-ethoxy)-3-phenyl-2H-isoquinolin-1-one] gave a dissociation constant (Kd) of less than 0.03 µM and a DC50 of less than 0.25 µM. In addition, on PARP-2 FL, the Kd was found to be 1.01 µM and the DC50 was found to be 3.28 µM. The same compound registered an IC50 in assay [1] of 0.34 µM.
`CN1CCN(CCOc2c(-c3ccccc3)[nH]c(=O)c3ccccc23)CC1` [Compound 19, 4-[2-(4-Methyl-piperazin-1-yl)-ethoxy]-3-phenyl-2H-isoquinolin-1-one di hydrochloride]: the Kd is less than 0.03 µM on PARP-1 FL and 7.29 µM at PARP-2 FL. At PARP-1 FL, the DC50 was less than 0.25 µM.
For the compound `CN1CCN(CCCOc2c(-c3ccccc3)[nH]c(=O)c3ccccc23)CC1` [Compound 20, 4-[3-(4-Methyl-piperazin-1-yl)-propoxy]-3-phenyl-2H-isoquinolin-1-one di hydrochloride], at PARP-1 FL, the Kd came out at 0.05 µM and the DC50 was less than 0.25 µM. On PARP-2 FL, this compound came in with a Kd of 5.35 µM and a DC50 of 5.52 µM. For the same compound, it took 6.5 µM to reach half-maximal inhibition in assay [1] (IC50).
Consider `CC(=O)N1CCN(CCOc2c(-c3ccccc3)[nH]c(=O)c3ccccc23)CC1` [Compound 7, 4-[2-(4-Acetyl-piperazin-1-yl)-ethoxy]-3-phenyl-2H-isoquinolin-1-one], for which the Kd at PARP-1 FL is less than 0.03 µM; at PARP-2 FL, more than 10 µM. Further, the DC50 was less than 0.25 µM on PARP-1 FL and more than 10 µM on PARP-2 FL.
`O=c1[nH]c(-c2ccccc2)c(OCCCN2CCCC2)c2ccccc12` [Compound 21, 3-Phenyl-4-(3-pyrrolidin-1-yl-propoxy)-2H-isoquinolin-1-one]: the Kd came to 0.04 µM at PARP-1 FL and 1.36 µM on PARP-2 FL. Also, the DC50 is less than 0.25 µM at PARP-1 FL and 1.58 µM at PARP-2 FL. The half-maximal inhibitory concentration (IC50) in assay [1] is 8.3 µM.
At PARP-1 FL, `NCCCCOc1c(-c2ccccc2)[nH]c(=O)c2ccccc12` [Compound 22, 4-(4-Amino-butoxy)-3-phenyl-2H-isoquinolin-1-one hydrochloride] registered an equilibrium dissociation constant (Kd) of less than 0.03 µM and a DC50 of less than 0.25 µM. Also, on PARP-2 FL, the Kd is 1.34 µM and the DC50 came out at 4.08 µM. The compound also yielded a half-maximal inhibitory concentration (IC50) in assay [1] of 9.5 µM.

In general, Kd refers to the equilibrium constant for the complex coming apart. The low end stands for a tighter complex, the high end for a looser complex. As usually defined, the IC50 is the concentration needed to halve the response being measured. Lower therefore signals greater potency in that assay.
